The target in one experiment is T1, DGKα (Homo sapiens, UniProt P23743).
T1 construct: His; purchased Signal Chem D21-10BH
The experiment in a line: In vitro DGKα inhibition assay (ADP-Glo). Type of experiment: biochemical. The following applies: His-tagged human recombinant enzyme; 0.1 nM DGKα, 50 μM ATP, 20 μM DLG; 90 minute incubation; ADP-Glo luminescence. Here is the method:
(§1) The DGKα and DGKζ biochemical reactions were performed using His-tagged human recombinant enzymes (Signal Chem, DGKα, #D21-10BH; DGKζ, #D30-10H)) and DLG (Dilauroyl-sn-glycerol) lipid substrate (Signal Chem, #D430-59). ADP-Glo assay was performed using ADP-Glo™ kinase Assay kit (Promega, #V9104). The reactions were carried out in assay buffer containing 40 mM Tris, pH 7.5, 0.1% CHAPS, 0.1% Prionex, 40 mM NaCl, 5 mM MgCl2, 1 mM CaCl2, and 1 mM DTT. DGKα reactions contained 0.1 nM DGKα, 50 μM ATP, and 20 μM DLG. And DGKζ reactions contained 0.4 nM DGKζ, 30 μM ATP, and 20 μM DLG. For compound inhibition studies, 40 nL test compound in DMSO was added to wells of white polystyrene plates in 384-well (Greiner, #784075) or 1536-well format (Greiner, #782075). Compounds were added with top concentration of 2 mM with 11 point, 3-fold dilution series. Enzyme solution (contains 2× DGK enzyme concentration in 1× assay buffer) was added to the plate in 2 μL/well volume, followed by 2 μL/well of substrate solution (contains 2× concentration of ATP and DLG substrate in 1× assay buffer). Plates were then centrifuged for 1 min at 1200 RPM and sealed or lidded. For 4 μL reaction volume, test compounds were therefore diluted 100× to final top concentration of 20 μM. After 90 minute incubation, reactions were quenched by addition of 2 μL/well Promega ADP-Glo Reagent, followed by centrifugation and lidding. After 60 min incubation, 2 μL/well Promega Kinase Detection Reagent was added, plates centrifuged, and incubated for 30 min. Plates were then read using Luminescence method on BMG PHERAstar FSX plate reader. Percent inhibition was calculated and IC50s were determined using 4-parameter fit in Genedata Screener. Labcyte Echo acoustic dispenser was used for compound addition, and Formulatrix Tempest liquid handler was used for all reagent dispenses.
In general terms: ADP-Glo turns the ADP formed in a reaction into a luminescent signal.

For a further experiment, the target named is DGKζ (Homo sapiens, UniProt Q13574). The experiment in a line: In vitro DGKζ inhibition assay (ADP-Glo). Type of experiment: biochemical. The following applies: His-tagged human recombinant enzyme; 0.4 nM DGKζ, 30 μM ATP, 20 μM DLG; 90 minute incubation; ADP-Glo luminescence. As for the experimental part:
as §1

This is an account of results in US20240217989A1, “Heteroaryl Fluoroalkenes As DGK Inhibitors” (Incyte Corporation, priority 2022, published 2024).

pIC50: −log10 of the molar value.

T1 sequence (P23743 whole entry): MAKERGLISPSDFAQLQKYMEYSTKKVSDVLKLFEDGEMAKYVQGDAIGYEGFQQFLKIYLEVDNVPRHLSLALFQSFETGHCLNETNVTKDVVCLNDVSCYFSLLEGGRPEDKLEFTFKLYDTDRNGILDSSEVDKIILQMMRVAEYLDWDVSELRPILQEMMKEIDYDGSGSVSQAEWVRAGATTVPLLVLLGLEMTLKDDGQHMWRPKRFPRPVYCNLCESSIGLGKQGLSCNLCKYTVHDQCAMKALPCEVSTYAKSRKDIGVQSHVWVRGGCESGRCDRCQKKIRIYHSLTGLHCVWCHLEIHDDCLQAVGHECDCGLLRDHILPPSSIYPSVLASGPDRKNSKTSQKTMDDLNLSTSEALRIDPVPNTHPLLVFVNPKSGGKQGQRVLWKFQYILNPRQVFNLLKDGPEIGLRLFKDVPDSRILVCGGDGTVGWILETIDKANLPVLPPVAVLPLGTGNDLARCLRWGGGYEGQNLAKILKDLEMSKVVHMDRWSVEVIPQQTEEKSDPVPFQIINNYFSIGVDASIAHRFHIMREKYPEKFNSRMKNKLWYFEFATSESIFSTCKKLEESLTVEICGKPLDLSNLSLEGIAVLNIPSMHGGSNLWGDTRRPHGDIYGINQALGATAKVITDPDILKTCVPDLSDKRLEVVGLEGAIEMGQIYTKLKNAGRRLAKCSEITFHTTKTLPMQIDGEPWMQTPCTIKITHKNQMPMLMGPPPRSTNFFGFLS
Chain of DGKζ (Q13574 whole entry): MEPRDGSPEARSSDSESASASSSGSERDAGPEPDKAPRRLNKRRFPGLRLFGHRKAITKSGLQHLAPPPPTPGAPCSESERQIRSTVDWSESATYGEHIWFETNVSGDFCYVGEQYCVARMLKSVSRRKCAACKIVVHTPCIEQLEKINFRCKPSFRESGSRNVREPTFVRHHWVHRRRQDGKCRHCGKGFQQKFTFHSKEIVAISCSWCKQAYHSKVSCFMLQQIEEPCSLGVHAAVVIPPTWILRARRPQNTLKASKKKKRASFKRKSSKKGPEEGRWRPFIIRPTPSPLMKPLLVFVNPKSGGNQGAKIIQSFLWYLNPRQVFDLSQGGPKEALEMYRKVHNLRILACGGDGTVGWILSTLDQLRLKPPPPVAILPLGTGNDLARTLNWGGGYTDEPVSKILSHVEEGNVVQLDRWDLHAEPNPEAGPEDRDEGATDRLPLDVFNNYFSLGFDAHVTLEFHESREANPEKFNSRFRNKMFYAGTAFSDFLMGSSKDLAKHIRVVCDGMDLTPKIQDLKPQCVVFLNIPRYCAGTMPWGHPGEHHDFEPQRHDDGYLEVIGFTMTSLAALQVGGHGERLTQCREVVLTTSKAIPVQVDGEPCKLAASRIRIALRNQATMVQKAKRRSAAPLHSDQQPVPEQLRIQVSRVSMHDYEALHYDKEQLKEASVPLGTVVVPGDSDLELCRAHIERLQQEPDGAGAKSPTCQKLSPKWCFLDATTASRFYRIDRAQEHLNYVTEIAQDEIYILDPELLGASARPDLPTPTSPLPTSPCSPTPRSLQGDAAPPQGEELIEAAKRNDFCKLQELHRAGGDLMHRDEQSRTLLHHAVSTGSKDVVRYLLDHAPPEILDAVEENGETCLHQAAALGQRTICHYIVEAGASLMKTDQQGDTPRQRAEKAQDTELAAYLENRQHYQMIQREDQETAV

The pIC50 is −log10 of the IC50, conventionally taken in molar units. On to `NC[C@@H]1CCCN(c2c(/C=C(\F)c3cc4nccnc4c(N4CC(F)(F)C4)n3)ccc(Oc3ccccc3F)c2C(F)(F)F)C1` [Example 1, (S,Z)-(1-(6-(2-(5-(3,3-Difluoroazetidin-1-yl)pyrido[3,4-b]pyrazin-7-yl)-2-fluorovinyl)-3-(2-fluorophenoxy)-2-(trifluoromethyl)phenyl)piperidin-3-yl)methanamine], for which the pIC50 at DGKα and at DGKζ was 6.70 to 7.70 throughout.

Take `NC[C@@H]1CCCN(c2c(/C=C(\F)c3cn4ccnc4c(N4CC(F)(F)C4)n3)ccc(Oc3ccccc3F)c2C(F)(F)F)C1` [Example 2, (S,Z)-(1-(6-(2-(8-(3,3-Difluoroazetidin-1-yl)imidazo[1,2-a]pyrazin-6-yl)-2-fluorovinyl)-3-(2-fluorophenoxy)-2-(trifluoromethyl)phenyl)piperidin-3-yl)methanamine]: the pIC50 at DGKα and on DGKζ was not below 7.70 each time.

On to `N#Cc1ncc(N2CC(F)(F)C2)nc1/C(F)=C/c1ccc(Oc2ccccc2F)c(C(F)(F)F)c1N1CCC[C@@H](CN)C1` [Example 3, (S,Z)-3-(2-(2-(3-(Aminomethyl)piperidin-1-yl)-4-(2-fluorophenoxy)-3-(trifluoromethyl)phenyl)-1-fluorovinyl)-5-(3,3-difluoroazetidin-1-yl)pyrazine-2-carbonitrile], for which the negative logarithm of the IC50 (pIC50) at DGKα and at DGKζ was not below 7.70 each time.

Consider `NC[C@@H]1CCCN(c2c(/C=C(\F)c3cncc(-c4ccns4)n3)ccc(Oc3ccccc3F)c2C(F)(F)F)C1` [Example 4, (S,Z)-(1-(6-(2-Fluoro-2-(6-(isothiazol-5-yl)pyrazin-2-yl)vinyl)-3-(2-fluorophenoxy)-2-(trifluoromethyl)phenyl)piperidin-3-yl)methanamine], for which, at DGKζ, the pIC50 is not below 7.70.

On to `CN(CCCN)c1c(/C=C(\F)c2cccc(-c3ccnnc3)n2)ccc(Oc2ccccc2)c1C(F)(F)F` [Example 5, (Z)-N1-(6-(2-Fluoro-2-(6-(pyridazin-4-yl)pyridin-2-yl)vinyl)-3-phenoxy-2-(trifluoromethyl)phenyl)-N1-methylpropane-1,3-diamine], for which the negative-log IC50 (pIC50) is not below 7.70 at DGKα and 6.70 to 7.70 on DGKζ.

For the compound `COc1cc(F)ccc1Oc1ccc(/C=C(\F)c2nccc(-c3ccnnc3)n2)c(N2CCC[C@@H](CN)C2)c1Cl` [Example 6, (S,Z)-(1-(2-Chloro-6-(2-fluoro-2-(4-(pyridazin-4-yl)pyrimidin-2-yl)vinyl)-3-(4-fluoro-2-methoxyphenoxy)phenyl)piperidin-3-yl)methanamine], the negative logarithm of the IC50 (pIC50) at DGKα and on DGKζ was not below 7.70 each time.

On to `COc1cc(F)ccc1Oc1ccc(/C=C(\F)c2ccnc(-c3ccnnc3)n2)c(N2CCC[C@@H](CN)C2)c1Cl` [Example 7, (S,Z)-(1-(2-Chloro-6-(2-fluoro-2-(2-(pyridazin-4-yl)pyrimidin-4-yl)vinyl)-3-(4-fluoro-2-methoxyphenoxy)phenyl)piperidin-3-yl)methanamine], for which the pIC50 on DGKα and on DGKζ was not below 7.70 in each case.

Turning to `COc1cc(F)ccc1Oc1ccc(/C=C(\F)c2nncc(N3CCC(F)(F)C3)n2)c(N2CCC[C@@H](CN)C2)c1Cl` [Example 8, (S,Z)-(1-(2-Chloro-6-(2-(5-(3,3-difluoropyrrolidin-1-yl)-1,2,4-triazin-3-yl)-2-fluorovinyl)-3-(4-fluoro-2-methoxyphenoxy)phenyl)piperidin-3-yl)methanamine], the negative logarithm of the IC50 (pIC50) on DGKα and at DGKζ was not below 7.70 in each case.

In the case of `F/C(=C\c1ccc(Oc2ccccc2)c(C(F)(F)F)c1N1CCOC2(CCNCC2)C1)c1cncc(-c2ccnnc2)n1` [Example 9, (Z)-4-(6-(2-Fluoro-2-(6-(pyridazin-4-yl)pyrazin-2-yl)vinyl)-3-phenoxy-2-(trifluoromethyl)phenyl)-1-oxa-4,9-diazaspiro[5.5]undecane], the pIC50 at DGKα and on DGKζ was not below 7.70 each time.

With `F/C(=C\c1ccc(Oc2ccccc2)c(C(F)(F)F)c1N1CCOC2(CCN(CC3CC3)CC2)C1)c1cncc(-c2ccnnc2)n1` [Example 10, (Z)-9-(Cyclopropylmethyl)-4-(6-(2-fluoro-2-(6-(pyridazin-4-yl)pyrazin-2-yl)vinyl)-3-phenoxy-2-(trifluoromethyl)phenyl)-1-oxa-4,9-diazaspiro[5.5]undecane], the negative-log IC50 (pIC50) on DGKα and at DGKζ was not below 7.70 throughout.

Take `COCCN1CCC2(CC1)CN(c1c(/C=C(\F)c3cncc(-c4ccnnc4)n3)ccc(Oc3ccccc3)c1C(F)(F)F)CCO2` [Example 11, (Z)-4-(6-(2-Fluoro-2-(6-(pyridazin-4-yl)pyrazin-2-yl)vinyl)-3-phenoxy-2-(trifluoromethyl)phenyl)-9-(2-methoxyethyl)-1-oxa-4,9-diazaspiro[5.5]undecane]: the pIC50 on DGKα is 6.70 to 7.70; on DGKζ it was not below 7.70.

Take `NC[C@H]1CCCN1c1c(/C=C(\F)c2cncc(-c3ccnnc3)n2)ccc(Oc2ccccc2)c1Cl` [Example 12, (R,Z)-(1-(2-Chloro-6-(2-fluoro-2-(6-(pyridazin-4-yl)pyrazin-2-yl)vinyl)-3-phenoxyphenyl)pyrrolidin-2-yl)methanamine]: the negative-log IC50 (pIC50) at DGKζ is not below 7.70.

Consider `NC[C@H]1CCCN1c1c(/C=C(\F)c2nccc(-c3ccnnc3)n2)ccc(Oc2ccccc2)c1Cl` [Example 13, (R,Z)-(1-(2-Chloro-6-(2-fluoro-2-(4-(pyridazin-4-yl)pyrimidin-2-yl)vinyl)-3-phenoxyphenyl)pyrrolidin-2-yl)methanamine], for which the pIC50 at DGKα and on DGKζ was not below 7.70 in each case.

In the case of `CCN1CCC2(CC1)CN(c1c(/C=C(\F)c3cncc(-c4ccnnc4)n3)ccc(OC3CC3)c1C(F)(F)F)CCO2` [Example 14, (Z)-4-(3-Cyclopropoxy-6-(2-fluoro-2-(6-(pyridazin-4-yl)pyrazin-2-yl)vinyl)-2-(trifluoromethyl)phenyl)-9-ethyl-1-oxa-4,9-diazaspiro[5.5]undecane], the pIC50 on DGKα and at DGKζ was 6.70 to 7.70 each time.

Take `F/C(=C\c1ccc(Oc2ccccc2)c(C(F)(F)F)c1N1CCCC2(CCN(CC3CC3)CC2)C1)c1cncc(N2CC(F)(F)C2)n1` [Example 15, (Z)-9-(Cyclopropylmethyl)-2-(6-(2-(6-(3,3-difluoroazetidin-1-yl)pyrazin-2-yl)-2-fluorovinyl)-3-phenoxy-2-(trifluoromethyl)phenyl)-2,9-diazaspiro[5.5]undecane]: the negative logarithm of the IC50 (pIC50) on DGKα and on DGKζ was not below 7.70 in each case.

`CCN1CCC2(CCCN(c3c(/C=C(\F)c4cncc(N5CC(F)(F)C5)n4)ccc(Oc4ccccc4)c3C(F)(F)F)C2)CC1` [Example 16, (Z)-2-(6-(2-(6-(3,3-Difluoroazetidin-1-yl)pyrazin-2-yl)-2-fluorovinyl)-3-phenoxy-2-(trifluoromethyl)phenyl)-9-ethyl-2,9-diazaspiro[5.5]undecane]: the pIC50 on DGKα was 6.70 to 7.70; at DGKζ, not below 7.70.

On to `[2H]c1c([2H])c([2H])c(Oc2ccc(/C=C(\F)c3cncc(N4CC(F)(F)C4)n3)c(N3CCCC4(CCN(CC5CC5)CC4)C3)c2C(F)(F)F)c([2H])c1[2H]` [Example 17, (Z)-9-(Cyclopropylmethyl)-2-(6-(2-(6-(3,3-difluoroazetidin-1-yl)pyrazin-2-yl)-2-fluorovinyl)-3-(phenoxy-d5)-2-(trifluoromethyl)phenyl)-2,9-diazaspiro[5.5]undecane], for which the pIC50 at DGKα and at DGKζ was not below 7.70 throughout.
